According to patent US20180362598A1 (priority 2016, published 2018):

test system: insect gut protease (X condition); type: biochemical

Substance | % of Max Slope X [%]
LFVRLRGS | 94
LKLFVGS | 98
LFVALKGS | 92
LRLFVGS | 74
IFVALKGS | 69
